From US5254728A, “Complexes containing S(+)-phenyl alkanoic acids and α-hydroxyalkanoic” (priority 1990, dated 1993)

Tests used:
[1] = pH 9.5; cited from earlier work
[2] = in vivo

Row | Compound | stability [1] | tmax [2] [min]
1 | CC(O)C(=O)O (centres unmarked) [lactic acid] | not being stable | 
2 | S(+)-ibuprofen-L-(+)-lactic acid complex |  | 20
